Species on record: Rattus norvegicus
Assay: DrugMatrix - Regimen: Daily Repeat
Assay type: toxicity, organism-based, Sprague-Dawley
Parameters: regimen Daily Repeat, gender Male, age 6-8 weeks
Conditions: in vivo, po, route oral GAVAGE, vehicle 100 % SALINE; for ABSOLUTE BASOPHIL / ABSOLUTE EOSINOPHIL / ABSOLUTE LYMPHOCYTE / ABSOLUTE MONOCYTE / ABSOLUTE SEGMENTED NEUTROPHIL / BASOPHIL / EOSINOPHIL / ERYTHROCYTE COUNT / HEMATOCRIT / HEMOGLOBIN / LEUKOCYTE COUNT / LYMPHOCYTE / MEAN CORPUSCULAR HEMOGLOBIN / MEAN CORPUSCULAR HEMOGLOBIN CONCENTRATION / MEAN CORPUSCULAR VOLUME / MONOCYTE / NEUTROPHIL / NUCLEATED RED BLOOD CELLS / PLATELET COUNT: tissue Blood; for ALANINE AMINOTRANSFERASE / ALBUMIN / ALKALINE PHOSPHATASE / ASPARTATE AMINOTRANSFERASE / BLOOD UREA NITROGEN / CARBON DIOXIDE / CHLORIDE / CHOLESTEROL / CREATINE PHOSPHOKINASE / CREATININE / GLUCOSE / LACTATE DEHYDROGENASE / LIPASE / PHOSPHORUS / POTASSIUM / SODIUM / TOTAL BILIRUBIN / TOTAL PROTEIN / URIC ACID: tissue Plasma
[1] = 59 mg/kg, 120 h, dose level Low, time 5 day
[2] = 400 mg/kg, 72 h, dose level High, time 3 day
[3] = 400 mg/kg, 120 h, dose level High, time 5 day

NC(=O)NO [HYDROXYUREA]
ABSOLUTE BASOPHIL [1]: 0 CELLS/uL
ABSOLUTE EOSINOPHIL [1]: 40 CELLS/uL
ABSOLUTE LYMPHOCYTE [1]: 7014.67 CELLS/uL
ABSOLUTE MONOCYTE [1]: 87.67 CELLS/uL
ABSOLUTE SEGMENTED NEUTROPHIL [1]: 557.67 CELLS/uL
BASOPHIL [1]: 0%
EOSINOPHIL [1]: 0.67%
ERYTHROCYTE COUNT [1]: 5.35 x10E6/uL
HEMATOCRIT [1]: 34.53%
HEMOGLOBIN [1]: 13.4 G/DL
LEUKOCYTE COUNT [1]: 7.7 x10E3/uL
LYMPHOCYTE [1]: 90.67%
MEAN CORPUSCULAR HEMOGLOBIN [1]: 25.1 pg
MEAN CORPUSCULAR HEMOGLOBIN CONCENTRATION [1]: 38.83 G/DL
MEAN CORPUSCULAR VOLUME [1]: 64.63 fL
MONOCYTE [1]: 1%
NEUTROPHIL [1]: 7.67%
NUCLEATED RED BLOOD CELLS [1]: 0 /100WBC
PLATELET COUNT [1]: 1286 x10E3/uL
ALANINE AMINOTRANSFERASE [1]: 54 u/L
ALBUMIN [1]: 4.1 G/DL
ALKALINE PHOSPHATASE [1]: 381.33 u/L
ASPARTATE AMINOTRANSFERASE [1]: 80.33 u/L
BLOOD UREA NITROGEN [1]: 12.33 mg/dL
CARBON DIOXIDE [1]: 29.67 mmol/L
CHLORIDE [1]: 98 MEQ/L
CHOLESTEROL [1]: 64 mg/dL
CREATINE PHOSPHOKINASE [1]: 314.67 u/L
CREATININE [1]: 0.22 mg/dL
GLUCOSE [1]: 169.33 mg/dL
LACTATE DEHYDROGENASE [1]: 90.33 u/L
LIPASE [1]: 10.67 u/L
PHOSPHORUS [1]: 10.9 mg/dL
POTASSIUM [1]: 5.6 MEQ/L
SODIUM [1]: 143.13 MEQ/L
TOTAL BILIRUBIN [1]: 0.17 mg/dL
TOTAL PROTEIN [1]: 6.1 G/DL
URIC ACID [1]: 0.8 mg/dL
ABSOLUTE BASOPHIL [2]: 0 CELLS/uL
ABSOLUTE EOSINOPHIL [2]: 0 CELLS/uL
ABSOLUTE LYMPHOCYTE [2]: 4351 CELLS/uL
ABSOLUTE MONOCYTE [2]: 16 CELLS/uL
ABSOLUTE SEGMENTED NEUTROPHIL [2]: 133 CELLS/uL
BASOPHIL [2]: 0%
EOSINOPHIL [2]: 0%
ERYTHROCYTE COUNT [2]: 4.56 x10E6/uL
HEMATOCRIT [2]: 29.63%
HEMOGLOBIN [2]: 11.37 G/DL
LEUKOCYTE COUNT [2]: 4.5 x10E3/uL
LYMPHOCYTE [2]: 96.67%
MEAN CORPUSCULAR HEMOGLOBIN [2]: 24.93 pg
MEAN CORPUSCULAR HEMOGLOBIN CONCENTRATION [2]: 38.43 G/DL
MEAN CORPUSCULAR VOLUME [2]: 64.87 fL
MONOCYTE [2]: 0.33%
NEUTROPHIL [2]: 3%
NUCLEATED RED BLOOD CELLS [2]: 0 /100WBC
PLATELET COUNT [2]: 1033 x10E3/uL
ALANINE AMINOTRANSFERASE [2]: 39.67 u/L
ALBUMIN [2]: 3.97 G/DL
ALKALINE PHOSPHATASE [2]: 323.33 u/L
ASPARTATE AMINOTRANSFERASE [2]: 76 u/L
BLOOD UREA NITROGEN [2]: 10 mg/dL
CARBON DIOXIDE [2]: 30.33 mmol/L
CHLORIDE [2]: 100.67 MEQ/L
CHOLESTEROL [2]: 77.33 mg/dL
CREATINE PHOSPHOKINASE [2]: 221.33 u/L
CREATININE [2]: 0.2 mg/dL
GLUCOSE [2]: 154.67 mg/dL
LACTATE DEHYDROGENASE [2]: 79 u/L
LIPASE [2]: 9 u/L
PHOSPHORUS [2]: 10.53 mg/dL
POTASSIUM [2]: 5.6 MEQ/L
SODIUM [2]: 144.93 MEQ/L
TOTAL BILIRUBIN [2]: 0.1 mg/dL
TOTAL PROTEIN [2]: 5.93 G/DL
URIC ACID [2]: 0.53 mg/dL
ABSOLUTE BASOPHIL [3]: 0 CELLS/uL
ABSOLUTE EOSINOPHIL [3]: 0 CELLS/uL
ABSOLUTE LYMPHOCYTE [3]: 4141 CELLS/uL
ABSOLUTE MONOCYTE [3]: 8.33 CELLS/uL
ABSOLUTE SEGMENTED NEUTROPHIL [3]: 117.33 CELLS/uL
BASOPHIL [3]: 0%
EOSINOPHIL [3]: 0%
ERYTHROCYTE COUNT [3]: 4.75 x10E6/uL
HEMATOCRIT [3]: 30.23%
HEMOGLOBIN [3]: 11.9 G/DL
LEUKOCYTE COUNT [3]: 4.27 x10E3/uL
LYMPHOCYTE [3]: 97%
MEAN CORPUSCULAR HEMOGLOBIN [3]: 25.03 pg
MEAN CORPUSCULAR HEMOGLOBIN CONCENTRATION [3]: 39.37 G/DL
MEAN CORPUSCULAR VOLUME [3]: 63.63 fL
MONOCYTE [3]: 0.33%
NEUTROPHIL [3]: 2.67%
NUCLEATED RED BLOOD CELLS [3]: 0 /100WBC
PLATELET COUNT [3]: 955 x10E3/uL
ALANINE AMINOTRANSFERASE [3]: 47 u/L
ALBUMIN [3]: 3.97 G/DL
ALKALINE PHOSPHATASE [3]: 216.67 u/L
ASPARTATE AMINOTRANSFERASE [3]: 84.67 u/L
BLOOD UREA NITROGEN [3]: 11.33 mg/dL
CARBON DIOXIDE [3]: 28.67 mmol/L
CHLORIDE [3]: 100.67 MEQ/L
CHOLESTEROL [3]: 82 mg/dL
CREATINE PHOSPHOKINASE [3]: 362.67 u/L
CREATININE [3]: 0.1 mg/dL
GLUCOSE [3]: 158.67 mg/dL
LACTATE DEHYDROGENASE [3]: 74 u/L
LIPASE [3]: 8.67 u/L
PHOSPHORUS [3]: 10.1 mg/dL
POTASSIUM [3]: 5.3 MEQ/L
SODIUM [3]: 144.07 MEQ/L
TOTAL BILIRUBIN [3]: 0.1 mg/dL
TOTAL PROTEIN [3]: 5.87 G/DL
URIC ACID [3]: 0.47 mg/dL
